Measured values: US9617244B2, “Antibacterial quinoline derivatives” (JANSSEN PHARMACEUTICA NV, priority 2012, dated 2017)
Values after ≈ are worked out from the molar mass of the structure shown.

test system: Staphylococcus aureus (ATCC29213); assay: In-vitro anti-bacterial activity, microtitre plate assay, IC90 determination (non-mycobacterial strains); assay type: cell-based; details: 90% inhibitory concentration for bacterial growth, 24 hours, resazurin fluorescence
Description: D.2. In-Vitro Method for Testing Compounds for Anti-Bacterial Activity Against Various Non-Mycobacterial Strains
Preparation of Bacterial Suspensions for Susceptibility Testing:
The bacteria used in this study were grown overnight in flasks containing 100 ml Mueller-Hinton Broth (Becton Dickinson—cat. no. 275730) in sterile de-ionized water, with shaking, at 37° C. Stocks (0.5 ml/tube) were stored at −70° C. until use. Bacteria titrations were performed in microtiter plates to detect the TCID50, in which TCID50 represents the dilution that gives rise to bacterial growth in 50% of inoculated cultures. In general, an inoculum level of approximately 100 TCID50 was used for susceptibility testing.
Anti Bacterial Susceptibility Testing: IC90 Determination
Flat-bottom, sterile 96-well plastic microtiter plates were filled with 180 μl of sterile deionized water, supplemented with 0.25% BSA. Subsequently, stock solutions (7.8× final test concentration) of compounds were added in 45 μl volumes in column 2 Serial five-fold dilutions (45 μl in 180 μl) were made directly in the microtiter plates from column 2 to reach column 11. Untreated control samples with (column 1) and without (column 12) inoculum were included in each microtiter plate. Depending on the bacteria type, approximately 10 to 60 CFU per well of bacteria inoculum (100 TCID50), in a volume of 100 μl in 2.8× Mueller-Hinton broth medium, was added to the rows A to H, except column 12. The same volume of broth medium without inoculum was added to column 12 in row A to H. The cultures were incubated at 37° C. for 24 hours under a normal atmosphere (incubator with open air valve and continuous ventilation). At the end of incubation, one day after inoculation, the bacterial growth was quantitated fluorometrically. Therefore resazurin (0.6 mg/ml) was added in a volume of 20 μl to all wells 3 hours after inoculation, and the plates were re-incubated overnight. A change in colour from blue to pink indicated the growth of bacteria. The fluorescence was read in a computer-controlled fluorometer (Cytofluor Biosearch) at an excitation wavelength of 530 nm and an emission wavelength of 590 nm. The % growth inhibition achieved by the compounds was calculated according to standard methods. The IC90 (expressed in μg/ml) was defined as the 90% inhibitory concentration for bacterial growth.

Row | IC90 STA B29213 | Compound
1 | 7.77 µg/mL (≈ 16 µM) | COc1nc2ccc(SC)cc2cc1C(c1ccccc1)C1(O)CCNC(Cc2ccccc2)C1 (stereo not shown) [Compound 141]
2 | 1.82 µg/mL (≈ 3.27 µM) | Cc1cc(F)ccc1C1CC(O)(C(c2cccc(Cl)c2)c2cc3cc(Br)ccc3[nH]c2=O)CCN1 (stereo not shown) [Compound 143]
3 | 3.63 µg/mL (≈ 6.53 µM) | Cc1cc(F)ccc1C1CC(O)(C(c2cccc(Cl)c2)c2cc3cc(Br)ccc3[nH]c2=O)CCN1 (stereo not shown) [Compound 144]
4 | 2.92 µg/mL (≈ 5.25 µM) | Cc1cc(F)ccc1C1CC(O)(C(c2cccc(Cl)c2)c2cc3cc(Br)ccc3[nH]c2=O)CCN1 (stereo not shown) [Compound 145]
5 | 2.35 µg/mL (≈ 4.23 µM) | Cc1cc(F)ccc1C1CC(O)(C(c2cccc(Cl)c2)c2cc3cc(Br)ccc3[nH]c2=O)CCN1 (stereo not shown) [Compound 146]
6 | 3.39 µg/mL (≈ 6.31 µM) | COc1nc2ccc(SC)cc2cc1C(c1cccc(Cl)c1)C1(O)CCNC(c2ccc(F)cc2C)C1 (stereo not shown) [Compound 147]
7 | 3.39 µg/mL (≈ 6.31 µM) | COc1nc2ccc(SC)cc2cc1C(c1cccc(Cl)c1)C1(O)CCNC(c2ccc(F)cc2C)C1 (stereo not shown) [Compound 148]
8 | 5.63 µg/mL (≈ 9.88 µM) | COc1nc2ccc(Br)cc2cc1C(c1cccc(Cl)c1)C1(O)CCNC(c2ccc(F)cc2C)C1 (stereo not shown) [Compound 149]
9 | 2.63 µg/mL (≈ 4.61 µM) | COc1nc2ccc(Br)cc2cc1C(c1cccc(Cl)c1)C1(O)CCNC(c2ccc(F)cc2C)C1 (stereo not shown) [Compound 150]
10 | 5.26 µg/mL (≈ 9.23 µM) | COc1nc2ccc(Br)cc2cc1C(c1cccc(Cl)c1)C1(O)CCNC(c2ccc(F)cc2C)C1 (stereo not shown) [Compound 151]
11 | 2.78 µg/mL (≈ 4.88 µM) | COc1nc2ccc(Br)cc2cc1C(c1cccc(Cl)c1)C1(O)CCNC(c2ccc(F)cc2C)C1 (stereo not shown) [Compound 152]
12 | >14.69 µg/mL | Cc1cc(F)ccc1C1CC(O)(C(c2cccc(Cl)c2)c2cc3cc(S(C)(=O)=O)ccc3[nH]c2=O)CCN1 (stereo not shown) [Compound 159]
13 | 3.51 µg/mL (≈ 6.71 µM) | CSc1ccc2[nH]c(=O)c(C(c3cccc(Cl)c3)C3(O)CCNC(c4ccc(F)cc4C)C3)cc2c1 (stereo not shown) [Compound 160]
14 | 6.90 µg/mL (≈ 13.2 µM) | CSc1ccc2[nH]c(=O)c(C(c3cccc(Cl)c3)C3(O)CCNC(c4ccc(F)cc4C)C3)cc2c1 (stereo not shown) [Compound 161]
15 | 3.52 µg/mL (≈ 6.73 µM) | CSc1ccc2[nH]c(=O)c(C(c3cccc(Cl)c3)C3(O)CCNC(c4ccc(F)cc4C)C3)cc2c1 (stereo not shown) [Compound 162]

same assay, conditions: Staphylococcus aureus, ATCC29213, 24 h, 90% inhibitory concentration for bacterial growth, resazurin fluorescence, read-out: IC90 STA B29213

Row | IC90 | Compound
16 | 3.58 µg/mL (≈ 6.3 µM) | CSc1nc2ccc(Br)cc2cc1C(c1ccc(Cl)cc1)C1(O)CCNC(Cc2ccccc2)C1 (stereo not shown) [Compound 89]
17 | 1.87 µg/mL (≈ 3.36 µM) | Cc1cc(F)ccc1C1CC(O)(C(c2ccc(Cl)cc2)c2cc3cc(Br)ccc3[nH]c2=O)CCN1 (stereo not shown) [Compound 107]
18 | > 20.6 µg/mL | COc1nc2ccc(C(=O)O)cc2cc1C(c1ccc(Cl)cc1)C1(O)CCNC(Cc2ccccc2)C1 (stereo not shown) [Compound 118]
19 | 12.5 µg/mL (≈ 27.1 µM) | CC1CC(O)(C(c2ccc(Cl)cc2)c2cc3cc(Br)ccc3[nH]c2=O)CCN1 (stereo not shown) [Compound 129]
20 | 2 µg/mL (≈ 3.93 µM) | COc1nc2ccccc2cc1C(c1ccc(Cl)cc1)C1(O)CCNC(Cc2ccc(F)c(F)c2)C1 (stereo not shown) [Compound 139]

test system: Mycobacterium smegmatis (ATCC607); assay: In-vitro anti-bacterial activity against strain M. Smegmatis ATCC607; assay type: cell-based; details: 90% inhibitory concentration for bacterial growth, 48 hours, Alamar Blue fluorescence
Description: D.1. In-Vitro Method for Testing Compounds for Anti-Bacterial Activity Against Strain M. Smegmatis ATCC607
Flat-bottom, sterile 96-well plastic microtiter plates were filled with 180 μl of sterile deionized water, supplemented with 0.25% BSA. Subsequently, stock solutions (7.8× final test concentration) of compounds were added in 45 μl volumes to a series of duplicate wells in column 2 so as to allow evaluation of their effects on bacterial growth. Serial five-fold dilutions (45 μl in 180 μl) were made directly in the microtiter plates from column 2 to 11 using a customised robot system (Zymark Corp., Hopkinton, Mass.). Pipette tips were changed after every 3 dilutions to minimize pipetting errors with high hydrophobic compounds. Untreated control samples with (column 1) and without (column 12) inoculum were included in each microtiter plate. Approximately 250 CFU per well of bacteria inoculum, in a volume of 100 μl in 2.8× Mueller-Hinton broth medium, was added to the rows A to H, except column 12. The same volume of broth medium without inoculum was added to column 12 in row A to H. The cultures were incubated at 37° C. for 48 hours in a humidified 5% CO2 atmosphere (incubator with open air valve and continuous ventilation). At the end of incubation, two days after inoculation, the bacterial growth was quantitated fluorometrically. Therefore Alamar Blue (10×) was added to all wells in a volume of 20 μl and plates were incubated for another 2 hours at […]
The fluorescence was read in a computer-controlled fluorometer (Cytofluor, Biosearch) at an excitation wavelength of 530 nm and an emission wavelength of 590 nm (gain 30). The percentage growth inhibition achieved by the compounds was calculated according to standard methods and expressed as IC90 (μg/ml) which defines the 90% inhibitory concentration for bacterial growth.

Row | IC90 MSM 607 | Compound
21 | 2.65 µg/mL (≈ 4.77 µM) | Cc1cc(F)ccc1C1CC(O)(C(c2ccc(Cl)cc2)c2cc3cc(Br)ccc3[nH]c2=O)CCN1 (stereo not shown) [Compound 107]
22 | 1.78 µg/mL (≈ 3.5 µM) | COc1nc2ccccc2cc1C(c1ccc(Cl)cc1)C1(O)CCNC(Cc2ccc(F)c(F)c2)C1 (stereo not shown) [Compound 139]
23 | 4.37 µg/mL (≈ 9.02 µM) | COc1nc2ccc(SC)cc2cc1C(c1ccccc1)C1(O)CCNC(Cc2ccccc2)C1 (stereo not shown) [Compound 141]
24 | 2.04 µg/mL (≈ 3.67 µM) | Cc1cc(F)ccc1C1CC(O)(C(c2cccc(Cl)c2)c2cc3cc(Br)ccc3[nH]c2=O)CCN1 (stereo not shown) [Compound 143]
25 | 3.24 µg/mL (≈ 5.83 µM) | Cc1cc(F)ccc1C1CC(O)(C(c2cccc(Cl)c2)c2cc3cc(Br)ccc3[nH]c2=O)CCN1 (stereo not shown) [Compound 144]
26 | 2.32 µg/mL (≈ 4.17 µM) | Cc1cc(F)ccc1C1CC(O)(C(c2cccc(Cl)c2)c2cc3cc(Br)ccc3[nH]c2=O)CCN1 (stereo not shown) [Compound 145]
27 | 1.87 µg/mL (≈ 3.36 µM) | Cc1cc(F)ccc1C1CC(O)(C(c2cccc(Cl)c2)c2cc3cc(Br)ccc3[nH]c2=O)CCN1 (stereo not shown) [Compound 146]
28 | 1.51 µg/mL (≈ 2.81 µM) | COc1nc2ccc(SC)cc2cc1C(c1cccc(Cl)c1)C1(O)CCNC(c2ccc(F)cc2C)C1 (stereo not shown) [Compound 147]
29 | 1.70 µg/mL (≈ 3.17 µM) | COc1nc2ccc(SC)cc2cc1C(c1cccc(Cl)c1)C1(O)CCNC(c2ccc(F)cc2C)C1 (stereo not shown) [Compound 148]
30 | 2.52 µg/mL (≈ 4.42 µM) | COc1nc2ccc(Br)cc2cc1C(c1cccc(Cl)c1)C1(O)CCNC(c2ccc(F)cc2C)C1 (stereo not shown) [Compound 149]
31 | 1.66 µg/mL (≈ 2.91 µM) | COc1nc2ccc(Br)cc2cc1C(c1cccc(Cl)c1)C1(O)CCNC(c2ccc(F)cc2C)C1 (stereo not shown) [Compound 150]
32 | 2.35 µg/mL (≈ 4.12 µM) | COc1nc2ccc(Br)cc2cc1C(c1cccc(Cl)c1)C1(O)CCNC(c2ccc(F)cc2C)C1 (stereo not shown) [Compound 151]
33 | 1.76 µg/mL (≈ 3.09 µM) | COc1nc2ccc(Br)cc2cc1C(c1cccc(Cl)c1)C1(O)CCNC(c2ccc(F)cc2C)C1 (stereo not shown) [Compound 152]
34 | >14.69 µg/mL | Cc1cc(F)ccc1C1CC(O)(C(c2cccc(Cl)c2)c2cc3cc(S(C)(=O)=O)ccc3[nH]c2=O)CCN1 (stereo not shown) [Compound 159]
35 | 2.48 µg/mL (≈ 4.74 µM) | CSc1ccc2[nH]c(=O)c(C(c3cccc(Cl)c3)C3(O)CCNC(c4ccc(F)cc4C)C3)cc2c1 (stereo not shown) [Compound 160]
36 | 6.90 µg/mL (≈ 13.2 µM) | CSc1ccc2[nH]c(=O)c(C(c3cccc(Cl)c3)C3(O)CCNC(c4ccc(F)cc4C)C3)cc2c1 (stereo not shown) [Compound 161]
37 | 2.49 µg/mL (≈ 4.76 µM) | CSc1ccc2[nH]c(=O)c(C(c3cccc(Cl)c3)C3(O)CCNC(c4ccc(F)cc4C)C3)cc2c1 (stereo not shown) [Compound 162]

same assay, conditions: Mycolicibacterium smegmatis, ATCC607, 48 h, 90% inhibitory concentration for bacterial growth, Alamar Blue fluorescence, read-out: IC90 MSM 607

Row | IC90 | Compound
38 | 1.8 µg/mL (≈ 3.17 µM) | CSc1nc2ccc(Br)cc2cc1C(c1ccc(Cl)cc1)C1(O)CCNC(Cc2ccccc2)C1 (stereo not shown) [Compound 89]
39 | > 20.6 µg/mL | COc1nc2ccc(C(=O)O)cc2cc1C(c1ccc(Cl)cc1)C1(O)CCNC(Cc2ccccc2)C1 (stereo not shown) [Compound 118]
40 | 7.9 µg/mL (≈ 17.1 µM) | CC1CC(O)(C(c2ccc(Cl)cc2)c2cc3cc(Br)ccc3[nH]c2=O)CCN1 (stereo not shown) [Compound 129]
